Reference: patent publication EP0472573B1, “HERBICIDE RESISTANT MAIZE” (ZENECA LIMITED, priority 1989, dated 1990)

Test system: M1 seed of maize inbred line UE95 (sensitive plants)
Assay: Pre-emergence screening of M1 seed
Type: in vivo, Zea mays
Experimental: M1 seed was sown, 100 seeds per tray, in WCB growing medium (low organic matter, 45% loam, 55% grit) and sprayed to 'run-off' using a track sprayer, with a solution of imazethapyr (PURSUIT) at a concentration calculated to be the equivalent of 250 g/ha of active ingredient . The seeds were covered with 0.5 inch of WCB and grown in the glasshouse at 25°C.
The chosen application rate was such that germination was close to 100%, but subsequently all susceptible plants were severely affected. However, after about two weeks, the initial effect of the herbicide became apparent: thin striped leaves and reduced height of only about 20% of the height of the control plants. […] Unsprayed UE95 plants were always grown in parallel with each screen as a control as it was already known that normal and M1 seedlings of UE95 are almost indistinguishable when germinated and grown to maturity without spraying.

With `CCc1cnc(C2=NC(=O)C(C)(C(C)C)N2)c(C(=O)O)c1` (stereo not drawn) [Imazethapyr, 5-ethyl-2-(5-iso-propyl-5-methyl-4-oxo-2-imidazolin-2-yl) nicotinic acid] the germination (250 g/ha of active ingredient, pre-emergence, glasshouse at 25°C) was roughly 100%, the “effect on sensitive plants” value (250 g/ha, after three to four weeks) was “almost all the sensitive plants were completely dead” and the reduced height (250 g/ha, susceptible plants, after about two weeks) was “about 20 % of the height of the control plants”.
